Source: patent US20090005385A1, “Treatment or Prevention of Cancer or Cardiovascular Disease with Methenyltetrahydrofolate Synthetases” (CORNELL RESEARCH FOUNDATION, INC., priority 2004, published 2009)
Several values for one entry are separate records, joined by “and”; a condition that tells them apart may be missing. Equal entries are not always repeated. Where two headings read alike, the source gives them in different places.

Legend:
[1] = target: T1, MTHFS (Mus musculus, UniProt Q9D110); assay: Inhibition of MTHFS by folates/antifolates, reaction specificity (Ki, Km); assay type: biochemical; settings: for Km: substrate of MTHFS
T1 sequence (Q9D110 1-203): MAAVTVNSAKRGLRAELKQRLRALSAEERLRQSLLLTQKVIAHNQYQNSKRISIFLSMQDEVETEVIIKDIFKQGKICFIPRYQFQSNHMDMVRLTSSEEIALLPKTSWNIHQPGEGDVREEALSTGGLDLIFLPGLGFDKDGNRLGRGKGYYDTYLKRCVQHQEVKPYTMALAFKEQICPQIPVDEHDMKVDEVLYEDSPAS
Procedure: Tissue samples were sonicated four times for 15 s in a buffer containing 100 mM HEPES pH 7.0, 100 mM sodium chloride, 5 mM EDTA, 1% Tween-20. The solution was clarified by centrifugation. MTHFS activity was determined using a spectrophotometer by monitoring the appearance of 5,10-methenyltetrahydrofolate, which has an absorbance maximum at 355 nm. For a typical assay, 50 μL of clarified tissue supernatant was added to a quartz cuvette containing 100 μM (6S)-5-formylTHF, 1 mM Mg-ATP and 100 mM MES, pH 6.0 and the rate of 5,10-methenylTHF formation was quantified. Activity measurements were normalized to total protein that was quantified using the Lowry-Bensadoun method (Bensadoun et al., “Assay of Proteins in the Presence of Interfering Materials,” Anal Biochem 70:241-250 (1976), which is hereby incorporated by reference in its entirety).
Several 10-formyl-substituted folates were screened for their ability to inhibit wild-type MTHFS.

[2] = tested on: MCF-7 cells; assay: Folate turnover in cultured cells (pulse-chase); assay type: cell-based, human; settings: 20 μM in chase medium
Procedure: Cell monolayers at 75% confluence were washed with PBS, then labeled for 12 h in defined αMEM lacking folate and glycine and supplemented with 25 nM (6S)-[^3H]5-formylTHF. For the chase, cell monolayers were washed with 10 ml of PBS, trypsinized, and pelleted by centrifugation. The cells were seeded in triplicate (1×10^6 cells) into 100 mm culture plates containing 10 ml of defined αMEM supplemented with 2 μM folic acid. Catecholamines (20 μM dopamine, NADA, and L-dopa) were prepared freshly and added to the chase media prior to the addition of labeled cells. Cells were harvested at defined time points, the medium was removed and the tritium in the medium was quantified. The cell monolayers were washed with PBS and lysed with 0.2 M ammonium hydroxide. Tritium remaining in the cells was quantified using a Beckman LS 8100 liquid scintillation counter.
Catecholamine availability may be rate limiting for MTHFS-catalyzed folate catabolism in MCF-7 cells. The effects of exogenous catecholamines on folate turnover rates were determined using pulse-chase analyses in MCF-7 cells. Folate turnover in MCF-7 cells labeled with [^3H]-5-formylTHF is biphasic, with an initial rapid phase of turnover followed by a slower phase (Anguera et al., J. Biol. Chem. 278:29856-29862 (2003), which is hereby incorporated by reference in its entirety). Addition of 20 μM NADA to the chase medium increased the magnitude of the rapid phase of folate turnover by 12% compared to untreated cells (FIG. 11A). […] To distinguish between these two mechanisms, 20 μM dopamine and L-dopa were added to the chase medium. Dopamine is the precursor of NADA, and both dopamine and L-dopa can function as oxidants following oxidation of their diphenolic ring generating dopamine-quinone or dopa-quinone (Rescigno et al., Biochemical Pharmacology 56:1089-1096 (1998); Graham, D. G. Mol. Pharmacol. 14:633-643 (1978), which are hereby incorporated by reference in their entirety). […] The addition of dopamine to the culture medium increased the magnitude of the rapid phase of folate turnover by only 4% relative to untreated cells (FIG. 11A). The minor effect of dopamine on folate turnover may reflect N-acetyltransferase-mediated dopamine acetylation that generating NADA. […] In summary, the pulse chase experiments indicate that NADA may be limiting for in vivo folate catabolism, and NADA may function specifically as the electron acceptor molecule for MTHFS-mediated folate catabolism.

[3] = target: T2, MTHFS (Homo sapiens, UniProt P49914); settings: cited from earlier work
T2 sequence (P49914 1-203): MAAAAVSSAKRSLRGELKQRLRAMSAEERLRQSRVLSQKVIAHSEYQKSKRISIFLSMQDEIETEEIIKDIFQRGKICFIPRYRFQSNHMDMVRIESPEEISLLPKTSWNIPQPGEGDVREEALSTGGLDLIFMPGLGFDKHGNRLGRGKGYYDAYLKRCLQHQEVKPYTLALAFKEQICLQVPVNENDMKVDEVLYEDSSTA

[4] = target: T3, MTHFS.oxNADA.Cu^2+ complex (Mus musculus, UniProt Q9D110); assay: MTHFS-mediated folate catabolism in vitro (HPLC, pABG formation); assay type: biochemical; settings: 5 min incubation, five independent experiments
T3 construct: hexa-histidine tag; made in house; host or cells: E. coli BL21 Star
T3 sequence (Q9D110 1-203): T1 sequence (Q9D110 1-203)
Procedure: Recombinant mouse MTHFS protein (50 μM) was incubated with 50 μM CuCl2, 50 μM NADA (oxidized with equimolar amounts of sodium periodate, extracted with ethyl acetate, and diluted 1:1 with 1 M Tris pH 8.0), in 50 mM Tris pH 8.0 for 5 min, then dialyzed against 2 L of 50 mM Tris pH 8.0 at 4° C. for 5 hours to remove unbound CuCl2 and oxidized NADA. (6S)-[^3H]-5-methylTHF or (6S)-[^3H]-5-formylTHF, were evaporated to dryness using a speedvac, resuspended in 20 μL of 50 μM unlabeled (6S)-5-methylTHF or (6S)-5-formylTHF in 100 mM MES pH 6.5, then approximately 275,000 cpm of the labeled folate was added immediately to either the dialyzed mouse MTHFS protein or the dialysis buffer as a control. The mixture was incubated 5 min at room temperature, then either analyzed immediately by HPLC or flash frozen using dry ice/ethanol. The reactions were spiked with a mixture of unlabeled pABG, (6R,S)-5-formylTHF, and (6S)-5-methylTHF, then analyzed on a Shimadzu HPLC equipped with a diode array UV spectrophotometric detector and a Luna 5μ 250×4.6 mm C18 column (Phenomenex). […] For each analysis, 1.0 ml fractions were collected into scintillation tubes, and the tritium was quantified using a Beckman LS 6500 liquid scintillation counter. […]

[5] = tested on: MCF-7 cells; assay: Radiolabeled folate accumulation in cultured cells treated with catecholamines; assay type: cell-based, human; settings: 12 h, 25 nM (6S)-[^3H]-5-formylTHF, 0-150 μM catecholamine
Procedure: Cell monolayers at 70% confluence in 6-well plates were labeled for 12 h in defined αMEM lacking folate and glycine, but supplemented with 25 nM (6S)-[^3H]5-formylTHF and 0, 25 μM, 50 μM, 75 μM, 100 μM, or 150 μM NADA, dopamine, or epinephrine. Cells were harvested by washing with 5 mL PBS, trypsinized, and pelleted by centrifugation and viable cells (determined by their ability to exclude trypan blue) were quantified. The cell pellets were lysed with 0.2 M ammonium hydroxide, and the intracellular tritium was quantified using a Beckman LS 8100 liquid scintillation counter.
Because the addition of NADA to the chase medium increased folate turnover rates in MCF-7 cells, the effects of various catecholamines on [^3H]folate accumulation was investigated. Cells were cultured for 12 h in defined αMEM medium containing 25 nM (6S)-[^3H]-5-formylTHF and various concentrations of NADA, dopamine, and epinephrine, and cellular [^3H]folate content was determined.

[6] = 37° C., pH 6.0, inhibitor of MTHFS, read-out: Ki

SMILES | Ki [1, 6] [µM] | further results
Nc1nc2c(c(=O)[nH]1)N(C=O)C(CNc1ccc(C(=O)O)cc1)CN2 (racemic) [(6RS)5-formylTHPteroate] |  | Km ([1]; 37° C., pH 6.0): 33 ± 10 µM
Nc1nc2c(c(=O)[nH]1)N(C=O)C(CCNc1ccc(C(=O)N[C@@H](CCC(=O)O)C(=O)O)cc1)CN2 (mixture of isomers) [(6RS)5-formylTHHF, 5-formyltetrahydrohomofolate] | 0.7 ± 0.3 | 
Nc1nc2c(c(=O)[nH]1)NC(CN(C=O)c1ccc(C(=O)O)cc1)CN2 (racemic) [(6RS)10-formylTHPteroate] | 5 ± 2 | 
N[C@@H](Cc1ccc(O)c(O)c1)C(=O)O [L-dopa] |  | folate turnover rates compared to untreated cells [2]: did not affect folate turnover rates
Nc1nc2ncc(CN(C=O)c3ccc(C(=O)N[C@@H](CCC(=O)O)C(=O)O)cc3)nc2c(=O)[nH]1 [10-formylfolic acid] | 13 ± 6 | fold increase of affinity for MTHFS by N^10 formylation of folic acid ([1]; relative to folic acid): ~5 fold
Nc1nc2ncc(CNc3ccc(C(=O)N[C@@H](CCC(=O)O)C(=O)O)cc3)nc2c(=O)[nH]1 [folic acid] | 58 ± 5 | 
Nc1nc2c(c(=O)[nH]1)N(C=O)C(CNc1ccc(C(=O)N[C@@H](CCC(=O)O)C(=O)O)cc1)CN2 (stereo partly drawn) [(6S)5-formylTHF, 5-formyl tetrahydrofolate] |  | Km ([1]; 37° C., pH 6.0): 10 ± 3 µM
CN(CC1CNc2nc(N)[nH]c(=O)c2N1C=O)c1ccc(C(=O)N[C@@H](CCC(=O)N[C@@H](CCC(=O)N[C@@H](CCC(=O)O)C(=O)O)C(=O)O)C(=O)O)cc1 (mixture of isomers) [(6RS)5-formyl,10-methylTHFGlu3] | 20 ± 2 | 
Nc1nc2c(c(=O)[nH]1)N(C=O)C(CNc1ccc(C(=O)NC(CCC(=O)NC(CCC(=O)NC(CCC(=O)O)C(=O)O)C(=O)O)C(=O)O)cc1)CN2 (racemic) [(6RS)5-formylTHFGlu3] |  | Km ([1]; 37° C., pH 6.0): 0.4 ± 0.1 µM
Nc1nc2c(c(=O)[nH]1)NC(CN(C=O)c1ccc(C(=O)N[C@@H](CCC(=O)O)C(=O)O)cc1)CN2 (stereo partly drawn) [(6R)10-formylTHF, 10-formyltetrahydrofolate] | 0.15 | fold increased affinity for MTHFS (Ki) compared to the substrate 5-formylTHF (Km) [1]: 56 fold and 60 fold
CN1c2c([nH]c(N)nc2=O)NC[C@@H]1CNc1ccc(C(=O)N[C@@H](CCC(=O)O)C(=O)O)cc1 [(6S)-5-methylTHF] |  | Ki [3]: 18 µM; conversion to pABG by reconstituted mouse MTHFS.oxNADA.Cu^2+ protein [4]: Approximately 1%
CN(CC1CNc2nc(N)[nH]c(=O)c2N1C=O)c1ccc(C(=O)N[C@@H](CCC(=O)O)C(=O)O)cc1 (mixture of isomers) [(6RS)5-formyl,10-methylTHF] | 10 ± 1 | 
Nc1nc2ncc(CNc3ccc(C(=O)NC(CCC(=O)NC(CCC(=O)NC(CCC(=O)NC(CCC(=O)NC(CCC(=O)O)C(=O)O)C(=O)O)C(=O)O)C(=O)O)C(=O)O)cc3)nc2c(=O)[nH]1 (stereo not drawn) [folic acidGlu5] | 1 ± 0.3 | 
CN(CCC1CNc2nc(N)[nH]c(=O)c2N1C=O)c1ccc(C(=O)N[C@@H](CCC(=O)O)C(=O)O)cc1 (mixture of isomers) [(6RS)5-formyl,10-methylTHHF] | 6 ± 3 | 
Nc1nc2ncc(CNc3ccc(C(=O)N[C@@H](CCC(=O)N[C@@H](CCC(=O)N[C@@H](CCC(=O)O)C(=O)O)C(=O)O)C(=O)O)cc3)nc2c(=O)[nH]1 [folic acidGlu3] | 17 ± 3 | 
CNC[C@H](O)c1ccc(O)c(O)c1 [epinephrine] |  | [^3H]folate accumulation [5]: Neither the addition of dopamine nor epinephrine to culture media impaired [^3H]folate accumulation
Nc1nc2c(c(=O)[nH]1)NC(CN(C=O)c1ccc(C(=O)N[C@@H](CCC(=O)N[C@@H](CCC(=O)N[C@@H](CCC(=O)O)C(=O)O)C(=O)O)C(=O)O)cc1)CN2 (stereo partly drawn) [10-formylTHF triglutamate] |  | Ki ([1]; natural isomer, read-out: Ki for MTHFS): 0.015 µM
Nc1nc2c(c(=O)[nH]1)NC(CN(C=O)c1ccc(C(=O)N[C@@H](CCC(=O)N[C@@H](CCC(=O)N[C@@H](CCC(=O)O)C(=O)O)C(=O)O)C(=O)O)cc1)CN2 (mixture of isomers) [(6RS)10-formylTHFGlu3] | 0.03 ± 0.01 | fold increased affinity (Ki) compared to the substrate 5-formylTHF triglutamate (Km) [1]: 13 fold
Nc1nc2c(c(=O)[nH]1)NC(CCN(C=O)c1ccc(C(=O)NC(CCC(=O)O)C(=O)O)cc1)CN2 (racemic) [(6RS)10-formylTHHF] | 0.19 ± 0.02 | Ki fold lower than the Ki for 5-formylTHHF [1]: 3 fold
